ChEMBL document CHEMBL1201862, “PubChem BioAssay data set” (2004)
The source made the active and inactive calls.

Tests used:
[1] = biological target: Luciferin 4-monooxygenase (Photinus pyralis, UniProt P08659); assay: firefly luciferase enzyme inhibitors, dose response, biochemical, luminescence (AID 1891)
[2] = biological target: T1, Sentrin-specific protease 6 (Homo sapiens, UniProt Q9GZR1); assay type: functional;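 note: Luminescence-based dose-response confirmatory assay of SENP6 inhibition, following up an ultra-high-throughput screen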
T1 sequence (Q9GZR1 whole entry): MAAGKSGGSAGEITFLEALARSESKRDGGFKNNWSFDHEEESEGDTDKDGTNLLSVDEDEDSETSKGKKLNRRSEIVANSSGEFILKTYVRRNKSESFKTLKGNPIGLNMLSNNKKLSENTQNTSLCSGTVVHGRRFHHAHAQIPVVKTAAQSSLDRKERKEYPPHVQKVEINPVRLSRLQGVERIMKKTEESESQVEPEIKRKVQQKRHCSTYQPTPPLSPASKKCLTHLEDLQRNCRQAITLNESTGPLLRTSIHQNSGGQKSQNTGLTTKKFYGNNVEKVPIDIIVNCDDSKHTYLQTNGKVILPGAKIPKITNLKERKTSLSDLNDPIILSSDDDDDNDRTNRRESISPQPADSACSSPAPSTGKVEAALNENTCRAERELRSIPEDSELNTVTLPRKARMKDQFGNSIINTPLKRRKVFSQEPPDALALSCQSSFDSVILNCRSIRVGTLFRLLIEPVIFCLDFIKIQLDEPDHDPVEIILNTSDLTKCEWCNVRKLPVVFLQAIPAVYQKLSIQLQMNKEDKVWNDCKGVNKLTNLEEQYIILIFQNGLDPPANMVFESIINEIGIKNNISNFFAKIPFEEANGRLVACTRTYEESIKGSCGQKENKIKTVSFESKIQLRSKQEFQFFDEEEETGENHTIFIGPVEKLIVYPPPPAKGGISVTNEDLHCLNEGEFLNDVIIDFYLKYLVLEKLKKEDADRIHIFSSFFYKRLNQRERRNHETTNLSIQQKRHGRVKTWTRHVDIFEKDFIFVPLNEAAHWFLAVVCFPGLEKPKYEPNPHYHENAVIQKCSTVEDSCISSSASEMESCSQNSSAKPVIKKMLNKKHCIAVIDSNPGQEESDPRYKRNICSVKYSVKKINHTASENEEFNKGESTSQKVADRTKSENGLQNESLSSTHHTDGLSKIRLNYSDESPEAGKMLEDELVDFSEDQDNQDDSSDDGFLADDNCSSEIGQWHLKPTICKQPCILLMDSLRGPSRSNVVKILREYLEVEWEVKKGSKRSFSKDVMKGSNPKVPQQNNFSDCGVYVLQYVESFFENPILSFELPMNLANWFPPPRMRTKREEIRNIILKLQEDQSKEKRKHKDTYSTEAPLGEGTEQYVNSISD

Sequence of Luciferin 4-monooxygenase (P08659 whole entry): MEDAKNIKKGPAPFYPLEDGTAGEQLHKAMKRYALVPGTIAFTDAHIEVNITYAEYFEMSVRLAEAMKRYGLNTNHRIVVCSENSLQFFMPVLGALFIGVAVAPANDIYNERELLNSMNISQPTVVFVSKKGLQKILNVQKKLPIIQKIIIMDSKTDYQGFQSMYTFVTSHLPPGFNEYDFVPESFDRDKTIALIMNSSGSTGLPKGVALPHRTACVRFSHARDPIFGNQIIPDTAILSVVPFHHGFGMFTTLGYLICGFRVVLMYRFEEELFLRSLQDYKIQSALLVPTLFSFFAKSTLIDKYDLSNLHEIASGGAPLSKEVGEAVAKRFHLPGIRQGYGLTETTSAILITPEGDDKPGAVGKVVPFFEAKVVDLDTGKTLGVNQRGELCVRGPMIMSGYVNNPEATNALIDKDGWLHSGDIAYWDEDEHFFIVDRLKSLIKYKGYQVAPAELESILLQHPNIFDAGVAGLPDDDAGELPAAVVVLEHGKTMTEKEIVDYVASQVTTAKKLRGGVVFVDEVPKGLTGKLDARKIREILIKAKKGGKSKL

SMILES | EC50 [1] | IC50 [2]
O=[N+]([O-])c1c(Nc2ccccn2)cc(Cl)c2nonc12 | > 112 µM (not active) | 
Cc1ccc(C(=O)NC2(O)C(=O)c3ccccc3C2=O)cc1C |  | 3.48 µM (active)
